Data reported in article PMC5218480 (PLoS ONE, 2017).

Test system: MV-4-11 cells
Experiment: Gene expression microarray analysis (Affymetrix PrimeView) and GSEA
Type: cell-based, human
Set-up: RFU PODN (11730768_x_at) / Fold change /veh PODN (11730768_x_at) / RFU LINC00158 (11744669_a_at) / Fold change /veh LINC00158 (11744669_a_at) / RFU DUSP10 (11751237_a_at) / Fold change /veh DUSP10 (11751237_a_at) / RFU ID3 (11757404_x_at) / Fold change /veh ID3 (11757404_x_at) / RFU PLEKHG5 (11737974_s_at) / Fold change /veh PLEKHG5 (11737974_s_at) / RFU LRRC4B (11730491_at) / Fold change /veh LRRC4B (11730491_at) / RFU GIMAP4 (11747438_a_at) / Fold change /veh GIMAP4 (11747438_a_at) / RFU KRT8 (11758183_x_at) / Fold change /veh KRT8 (11758183_x_at) / RFU CNN1 (11734310_a_at) / Fold change /veh CNN1 (11734310_a_at) / RFU VPS37D (11726825_at) / Fold change /veh VPS37D (11726825_at) / RFU C10orf10 (11716522_x_at) / Fold change /veh C10orf10 (11716522_x_at) / RFU KIR2DL2 /// KIR2DL4 /// KIR2DL5A /// KIR2DL5B /// KIR2DS1 /// KIR2DS2 /// KIR2DS3 /// KIR2DS4 /// KIR3DL3 /// KIR3DL3 /// KIR3DS1 (11738374_at) / Fold change /veh KIR2DL2 /// KIR2DL4 /// KIR2DL5A /// KIR2DL5B /// KIR2DS1 /// KIR2DS2 /// KIR2DS3 /// KIR2DS4 /// KIR3DL3 /// KIR3DL3 /// KIR3DS1 (11738374_at) / RFU C1QL1 (11718748_at) / Fold change /veh C1QL1 (11718748_at) / RFU TMPRSS4 (11747572_a_at) / Fold change /veh TMPRSS4 (11747572_a_at) / RFU HAMP (11756126_x_at) / Fold change /veh HAMP (11756126_x_at) / RFU RNFT2 (11725882_a_at) / Fold change /veh RNFT2 (11725882_a_at) / RFU NR4A2 (11747474_a_at) / Fold change /veh NR4A2 (11747474_a_at) / RFU ABCC12 (11746883_a_at) / Fold change /veh ABCC12 (11746883_a_at) / RFU TMEM136 (11760407_x_at) / Fold change /veh TMEM136 (11760407_x_at) / RFU CLDN22 /// WWC2 (11732394_at) / Fold change /veh CLDN22 /// WWC2 (11732394_at) / RFU HLA-DPB1 (11760878_x_at) / Fold change /veh HLA-DPB1 (11760878_x_at) / RFU SPINT1 (11716480_a_at) / Fold change /veh SPINT1 (11716480_a_at) / RFU GAP43 (11754022_s_at) / Fold change /veh GAP43 (11754022_s_at) / RFU A4GNT (11735810_at) / Fold change /veh A4GNT (11735810_at) / RFU PRB3 (11715151_x_at) / Fold change /veh PRB3 (11715151_x_at) / RFU TUBB4B (11761932_at) / Fold change /veh TUBB4B (11761932_at) / RFU CAPN14 (11732068_a_at) / Fold change /veh CAPN14 (11732068_a_at) / RFU TMCC2 (11721928_a_at) / Fold change /veh TMCC2 (11721928_a_at) / RFU IRGQ (11745062_a_at) / Fold change /veh IRGQ (11745062_a_at) / RFU FAM174B (11720279_a_at) / Fold change /veh FAM174B (11720279_a_at) / RFU TMPRSS4 (11748680_a_at) / Fold change /veh TMPRSS4 (11748680_a_at) / RFU FAM212B (11763350_a_at) / Fold change /veh FAM212B (11763350_a_at) / RFU PLEKHG5 (11743358_a_at) / Fold change /veh PLEKHG5 (11743358_a_at) / RFU ZSCAN30 (11745921_a_at) / Fold change /veh ZSCAN30 (11745921_a_at) / RFU CMKLR1 (11741424_a_at) / Fold change /veh CMKLR1 (11741424_a_at) / RFU LOC101060620 /// MAPK8IP1 (11723275_at) / Fold change /veh LOC101060620 /// MAPK8IP1 (11723275_at) / RFU SPTSSB (11747773_x_at) / Fold change /veh SPTSSB (11747773_x_at) / RFU PRSS12 (11739890_at) / Fold change /veh PRSS12 (11739890_at) / RFU BIN1 (11741810_x_at) / Fold change /veh BIN1 (11741810_x_at) / RFU WNT11 (11732464_a_at) / Fold change /veh WNT11 (11732464_a_at) / RFU C10orf10 (11716521_a_at) / Fold change /veh C10orf10 (11716521_a_at) / RFU C5orf56 (11738089_at) / Fold change /veh C5orf56 (11738089_at) / RFU CYB561 (11721691_x_at) / Fold change /veh CYB561 (11721691_x_at) / RFU ANKRD19P (11752326_a_at) / Fold change /veh ANKRD19P (11752326_a_at) / RFU OR2T12 /// OR2T33 /// OR2T8 (11738714_s_at) / Fold change /veh OR2T12 /// OR2T33 /// OR2T8 (11738714_s_at) / RFU VCAN (11748164_a_at) / Fold change /veh VCAN (11748164_a_at) / RFU JSRP1 (11732532_at) / Fold change /veh JSRP1 (11732532_at) / RFU KRTAP10-11 (11738290_x_at) / Fold change /veh KRTAP10-11 (11738290_x_at) / RFU MYO3A (11730013_a_at) / Fold change /veh MYO3A (11730013_a_at) / RFU EBF3 (11725865_a_at) / Fold change /veh EBF3 (11725865_a_at) / RFU CAMK2N1 (11719241_x_at) / Fold change /veh CAMK2N1 (11719241_x_at) / RFU C5orf56 (11738088_a_at) / Fold change /veh C5orf56 (11738088_a_at) / RFU OLFML3 (11715873_a_at) / Fold change /veh OLFML3 (11715873_a_at) / RFU LOC100653217 /// NTM (11731650_a_at) / Fold change /veh LOC100653217 /// NTM (11731650_a_at) / RFU MAPK11 (11762145_a_at) / Fold change /veh MAPK11 (11762145_a_at) / RFU FIZ1 (11724087_x_at) / Fold change /veh FIZ1 (11724087_x_at) / RFU OASL (11726364_x_at) / Fold change /veh OASL (11726364_x_at) / RFU SOX15 (11748057_x_at) / Fold change /veh SOX15 (11748057_x_at) / RFU CD79A (11719716_a_at) / Fold change /veh CD79A (11719716_a_at) / RFU HIST1H1D (11736915_at) / Fold change /veh HIST1H1D (11736915_at) / RFU CASKIN2 (11723855_a_at) / Fold change /veh CASKIN2 (11723855_a_at) / RFU LOC730098 (11760151_x_at) / Fold change /veh LOC730098 (11760151_x_at) / RFU OR4N2 (11742367_at) / Fold change /veh OR4N2 (11742367_at) / RFU PRRT2 (11749266_a_at) / Fold change /veh PRRT2 (11749266_a_at) / RFU SNX32 (11753110_a_at) / Fold change /veh SNX32 (11753110_a_at) / RFU CDHR5 (11726645_a_at) / Fold change /veh CDHR5 (11726645_a_at) / RFU RCAN1 (11760418_a_at) / Fold change /veh RCAN1 (11760418_a_at) / RFU FAM167A (11723789_a_at) / Fold change /veh FAM167A (11723789_a_at) / RFU FAM26E (11764081_at) / Fold change /veh FAM26E (11764081_at) / RFU ISYNA1 (11749810_s_at) / Fold change /veh ISYNA1 (11749810_s_at) / RFU ACY1 (11761880_at) / Fold change /veh ACY1 (11761880_at) / RFU 11764098_at / Fold change /veh 11764098_at / RFU SAMD14 (11745864_x_at) / Fold change /veh SAMD14 (11745864_x_at) / RFU NPB (11741838_a_at) / Fold change /veh NPB (11741838_a_at) / RFU TMPRSS6 (11731388_a_at) / Fold change /veh TMPRSS6 (11731388_a_at) / RFU KRTAP10-2 (11738614_at) / Fold change /veh KRTAP10-2 (11738614_at) / RFU ARHGAP8 /// PRR5-ARHGAP8 (11727945_x_at) / Fold change /veh ARHGAP8 /// PRR5-ARHGAP8 (11727945_x_at) / RFU KRTAP5-7 /// NADSYN1 (11734609_at) / Fold change /veh KRTAP5-7 /// NADSYN1 (11734609_at) / RFU RASL12 (11751679_a_at) / Fold change /veh RASL12 (11751679_a_at) / RFU CDKN2B (11736163_a_at) / Fold change /veh CDKN2B (11736163_a_at) / RFU PRF1 (11729649_at) / Fold change /veh PRF1 (11729649_at) / RFU, ZNF638 /// ZNF638-IT1 / Fold change vs veh, ZNF638 /// ZNF638-IT1 / RFU, PANK3 / Fold change vs veh, PANK3 / RFU, SH3YL1 / Fold change vs veh, SH3YL1 / RFU, ZEB2 / Fold change vs veh, ZEB2 / RFU, NRIP1 / Fold change vs veh, NRIP1 / RFU, PTTG1IP / Fold change vs veh, PTTG1IP / RFU, CAPN2 / Fold change vs veh, CAPN2 / RFU, MED14 / Fold change vs veh, MED14 / RFU, SNORA58 / Fold change vs veh, SNORA58 / RFU, C1orf63 / Fold change vs veh, C1orf63 / RFU, LRRFIP1 / Fold change vs veh, LRRFIP1 / RFU, NDUFAF7 / Fold change vs veh, NDUFAF7 / RFU, SLC12A2 / Fold change vs veh, SLC12A2 / RFU, IBTK / Fold change vs veh, IBTK / RFU, ESF1 / Fold change vs veh, ESF1 / Fold change vs veh, TMEM50B / RFU, TAOK1 / Fold change vs veh, TAOK1 / RFU, ACBD3 / Fold change vs veh, ACBD3 / RFU, TMA16 / Fold change vs veh, TMA16 / RFU, RWDD3 / Fold change vs veh, RWDD3 / RFU, BCAT1 / Fold change vs veh, BCAT1 / RFU, EDEM3 / Fold change vs veh, EDEM3 / RFU, TMEM33 / Fold change vs veh, TMEM33 / RFU, WDR75 / Fold change vs veh, WDR75 / RFU, AHCTF1 / Fold change vs veh, AHCTF1 / RFU, TFRC / Fold change vs veh, TFRC / RFU, ZDHHC17 / Fold change vs veh, ZDHHC17 / RFU, NOM1 / Fold change vs veh, NOM1 / RFU, ARL8B / Fold change vs veh, ARL8B / RFU, ZBTB11 / Fold change vs veh, ZBTB11 / RFU, TAMM41 / Fold change vs veh, TAMM41 / RFU, KIAA1704 /// LOC100996395 / Fold change vs veh, KIAA1704 /// LOC100996395 / RFU, ING1 / Fold change vs veh, ING1 / RFU, TRMT61B / Fold change vs veh, TRMT61B / RFU, FUBP3 / Fold change vs veh, FUBP3 / RFU, TP53 / Fold change vs veh, TP53 / RFU, TNKS2 / Fold change vs veh, TNKS2 / RFU, ZFP14 / Fold change vs veh, ZFP14 / RFU, ACTR2 / Fold change vs veh, ACTR2 / RFU, PPP3R1 / Fold change vs veh, PPP3R1 / RFU, PIK3R1 / Fold change vs veh, PIK3R1 / RFU, HNRNPA1 / Fold change vs veh, HNRNPA1 / RFU, RNF170 / Fold change vs veh, RNF170 / RFU, ZNF28 / Fold change vs veh, ZNF28 / RFU, RNGTT / Fold change vs veh, RNGTT / RFU, OGT / Fold change vs veh, OGT / RFU, BRD1 / Fold change vs veh, BRD1 / RFU, MARS / Fold change vs veh, MARS / RFU, ZNF655 / Fold change vs veh, ZNF655 / RFU, FAHD1 / Fold change vs veh, FAHD1 / RFU, BDP1 / Fold change vs veh, BDP1 / RFU, LRRCC1 / Fold change vs veh, LRRCC1 / RFU, ARID1A / Fold change vs veh, ARID1A / RFU, ZNF146 / Fold change vs veh, ZNF146 / RFU, ZNF330 / Fold change vs veh, ZNF330 / RFU, GPN3 / Fold change vs veh, GPN3 / RFU, C9orf123 / Fold change vs veh, C9orf123 / RFU, N4BP2L2 / Fold change vs veh, N4BP2L2 / RFU, ARFIP1 / Fold change vs veh, ARFIP1 / RFU, FAM179B / Fold change vs veh, FAM179B / RFU, BCL10 / Fold change vs veh, BCL10 / RFU, UHRF1BP1L / Fold change vs veh, UHRF1BP1L / RFU, BET1 / Fold change vs veh, BET1 / RFU, CNOT2 / Fold change vs veh, CNOT2 / RFU, ZNF268 / Fold change vs veh, ZNF268 / Fold change vs veh, ZNF507 / RFU, DGCR2 / Fold change vs veh, DGCR2 / RFU, WDSUB1 / Fold change vs veh, WDSUB1 / Fold change vs veh, HSP90B1 /// MIR3652 / RFU, ADSS / Fold change vs veh, ADSS / RFU, GK / Fold change vs veh, GK / RFU, ZNF148 / Fold change vs veh, ZNF148 / RFU, TAF9 / Fold change vs veh, TAF9 / RFU, SLC1A5 / Fold change vs veh, SLC1A5 / RFU, SLMO2 / Fold change vs veh, SLMO2 / RFU, ABCC4 / Fold change vs veh, ABCC4 / RFU, LOC101060439 /// RAP1B / Fold change vs veh, LOC101060439 /// RAP1B / RFU, RFX7 / Fold change vs veh, RFX7 / RFU, GTPBP10 / Fold change vs veh, GTPBP10 / RFU, CNEP1R1 / Fold change vs veh, CNEP1R1 / RFU, BIVM-ERCC5 /// ERCC5 / Fold change vs veh, BIVM-ERCC5 /// ERCC5 / RFU, ILF3 / Fold change vs veh, ILF3 / RFU 11762660_at / Fold change /veh 11762660_at / RFU VCAN (11757783_s_at) / Fold change /veh VCAN (11757783_s_at) / RFU DDX43 (11728927_at) / Fold change /veh DDX43 (11728927_at) / RFU KRT8 (11758188_x_at) / Fold change /veh KRT8 (11758188_x_at) / RFU NKD1 (11759106_at) / Fold change /veh NKD1 (11759106_at) / RFU SRD5A1 (11742802_a_at) / Fold change /veh SRD5A1 (11742802_a_at) / RFU TPSAB1 /// TPSB2 (11721975_s_at) / Fold change /veh TPSAB1 /// TPSB2 (11721975_s_at) / RFU GSTM3 (11746129_a_at) / Fold change /veh GSTM3 (11746129_a_at) / RFU IL23R (11737362_x_at) / Fold change /veh IL23R (11737362_x_at) / RFU TMEM51 (11727254_a_at) / Fold change /veh TMEM51 (11727254_a_at) / RFU PIWIL2 (11732686_x_at) / Fold change /veh PIWIL2 (11732686_x_at) / RFU ORM1 (11744905_x_at) / Fold change /veh ORM1 (11744905_x_at) / RFU CCDC152 (11743942_at) / Fold change /veh CCDC152 (11743942_at) / RFU ECM1 (11717891_a_at) / Fold change /veh ECM1 (11717891_a_at) / RFU IL23R (11748794_a_at) / Fold change /veh IL23R (11748794_a_at) / RFU TNFAIP8L3 (11732012_x_at) / Fold change /veh TNFAIP8L3 (11732012_x_at) / RFU MBOAT4 (11741988_at) / Fold change /veh MBOAT4 (11741988_at) / RFU 11764193_at / Fold change /veh 11764193_at / RFU TMEM53 (11763286_at) / Fold change /veh TMEM53 (11763286_at) / RFU MAGEB2 (11727129_at) / Fold change /veh MAGEB2 (11727129_at) / RFU TMEM200A (11744735_a_at) / Fold change /veh TMEM200A (11744735_a_at) / RFU CCDC152 (11751479_a_at) / Fold change /veh CCDC152 (11751479_a_at) / RFU FAM211A (11726209_a_at) / Fold change /veh FAM211A (11726209_a_at) / RFU RGS16 (11746705_a_at) / Fold change /veh RGS16 (11746705_a_at) / RFU VCAN (11755009_s_at) / Fold change /veh VCAN (11755009_s_at) / RFU RHOB (11743442_s_at) / Fold change /veh RHOB (11743442_s_at) / RFU RGS16 (11720943_a_at) / Fold change /veh RGS16 (11720943_a_at) / RFU RGS16 (11720944_at) / Fold change /veh RGS16 (11720944_at) / RFU, VPS4B / Fold change vs veh, VPS4B / RFU, CREB1 / Fold change vs veh, CREB1 / RFU, DNAJC13 / Fold change vs veh, DNAJC13 / RFU, GNAQ / Fold change vs veh, GNAQ / RFU, CDK5R1 / Fold change vs veh, CDK5R1 / RFU, ZRANB3 / Fold change vs veh, ZRANB3 / RFU, CUL4A / Fold change vs veh, CUL4A / RFU, CCNY / Fold change vs veh, CCNY / RFU, UFL1 / Fold change vs veh, UFL1 / RFU, COG3 / Fold change vs veh, COG3 / RFU, DIAPH2 / Fold change vs veh, DIAPH2 / RFU, SKA2 / Fold change vs veh, SKA2 / RFU, AFF3 / Fold change vs veh, AFF3 / RFU, LMF1 / Fold change vs veh, LMF1 / RFU, IPO11 / Fold change vs veh, IPO11 / RFU, DFFB / Fold change vs veh, DFFB / RFU, FOXP1 / Fold change vs veh, FOXP1 / RFU, CARD8 / Fold change vs veh, CARD8 / RFU, STRN3 / Fold change vs veh, STRN3 / RFU, ADK / Fold change vs veh, ADK / RFU, RASSF2 / Fold change vs veh, RASSF2 / RFU, WIPF1 / Fold change vs veh, WIPF1 / RFU, LARP1B / Fold change vs veh, LARP1B / RFU, RASA1 / Fold change vs veh, RASA1 / RFU, RB1 / Fold change vs veh, RB1 / RFU, PPFIA1 / Fold change vs veh, PPFIA1 / RFU, MAT2A / Fold change vs veh, MAT2A / RFU, CCT5 / Fold change vs veh, CCT5 / RFU, WDR92 / Fold change vs veh, WDR92 / RFU, CUX1 / Fold change vs veh, CUX1 / RFU, TTC7A / Fold change vs veh, TTC7A / RFU, TMEM135 / Fold change vs veh, TMEM135 / RFU, DEPTOR / Fold change vs veh, DEPTOR / RFU, CPM / Fold change vs veh, CPM / RFU, DNAJB6 / Fold change vs veh, DNAJB6 / RFU, CACNA2D3 / Fold change vs veh, CACNA2D3 / RFU, DTX4 / Fold change vs veh, DTX4 / RFU, TFCP2 / Fold change vs veh, TFCP2 / RFU, GMCL1 /// GMCL1P1 / Fold change vs veh, GMCL1 /// GMCL1P1 / RFU, AEBP2 / Fold change vs veh, AEBP2 / RFU, SNHG1 /// SNORD22 /// SNORD25 /// SNORD26 /// SNORD27 /// SNORD28 /// SNORD29 /// SNORD31 / Fold change vs veh, SNHG1 /// SNORD22 /// SNORD25 /// SNORD26 /// SNORD27 /// SNORD28 /// SNORD29 /// SNORD31 / Fold change (Aza/veh), C12orf56 (ProbeSet 11735607_a_at) / Fold change (ACY-1035/veh), C12orf56 (ProbeSet 11735607_a_at) / Fold change (Aza/veh), FGFR1OP (ProbeSet 11751329_s_at) / Fold change (ACY-1035/veh), FGFR1OP (ProbeSet 11751329_s_at) / Fold change (Aza/veh), VPS36 (ProbeSet 11739960_a_at) / Fold change (ACY-1035/veh), VPS36 (ProbeSet 11739960_a_at) / RFU SYPL1 (11715823_x_at) / Fold change /veh SYPL1 (11715823_x_at) / RFU IGFBP7 (11715501_s_at) / Fold change /veh IGFBP7 (11715501_s_at) / RFU REEP3 (11722064_at) / Fold change /veh REEP3 (11722064_at) / RFU IGLL1 (11728026_x_at) / Fold change /veh IGLL1 (11728026_x_at): dose or concentration left out as unconfirmed
Conditions: ProbeSet 11721521_at; LIST B

SMILES: Nc1ccc(-c2cccs2)cc1NC(=O)c1ccc2c(c1)cc(C1CC1)n2CCN1CCOCC1 [ACY-1035]
- RFU, ZDHHC17: 49.20 RFU
